The source of these data is paper PMC12320293 (2025).

The subject of experiment [1] is miR-31 hairpin (pre-miR-31 residues 20-52) (RNA, miRNA) GGCAUAGCUGUUGAACUGGGAACCUGCUAUGCC
Put plainly: STD-NMR. Conditions: KH2PO4 50 mM (500 mM in Methods), Mg2+ 1 mM, 10 μM RNA, 200 μM ligand.

The test system is the same in experiment [2]. Description: 1H-13C HSQC NMR. Conditions: KH2PO4 50 mM (500 mM in Methods), Mg2+ 1 mM; ND: no observable change at 10-fold ligand excess; 37 °C.
The test system is the same in experiment [3]. Put plainly: fluorescent indicator displacement. Conditions: KH2PO4 50 mM (500 mM in Methods), Mg2+ 1 mM, 100 μM compound, 50.9 nM RNA; for % TO-PRO-1 displaced: TO-PRO-1 500 nM displaced; for binding: TO-PRO-1 500 nM displaced by >15%.
The test system is the same in experiment [4]. Description: fluorescence titration of dye with RNA. Conditions: KH2PO4 50 mM (500 mM in Methods), Mg2+ 1 mM; 500 nM TO-PRO-1, RNA 0-20 μM, pH 7.5, 2% DMSO, room temperature.
Experiment [5] has the same test system. Description: 1H-13C HSQC NMR titration (chemical shift perturbation). As to conditions: KH2PO4 50 mM (500 mM in Methods), Mg2+ 1 mM, apparent, pH 7.5, 2% DMSO, 10% D2O, 37 °C.
The test system is the same in experiment [6]. Description: 1H-13C HSQC NMR titration (peak volumes). As to conditions: KH2PO4 50 mM (500 mM in Methods), Mg2+ 1 mM, apparent, pH 7.5, 2% DMSO, 10% D2O, 37 °C, 100 μM RNA.

`COc1ccc(Nc2nc(N)nc(N)c2C#N)cc1`: the binding entry in experiment [1] (pH 7.5, 25 °C) is given as “weak”; in experiment [2] it was “weak”. Also, the “% TO-PRO-1 displaced” value in experiment [3] (below 15% hit criterion) worked out at 7.6 ± 1.8%.
For the molecule `C[n+]1c(C=C2C=CN(CCC[N+](C)(C)C)c3ccccc32)sc2ccccc21`, the KD in experiment [4] was found to be 0.46 ± 0.06 µM.
`Cc1cccc(Nc2nc(N)nc(N)c2C#N)c1`: the binding result in experiment [1] (pH 7.5, 25 °C) is “weak”; in experiment [2] it was “weak”. In experiment [3] (below 15% hit criterion), the “% TO-PRO-1 displaced” value is given as 7.6 ± 2.7%.
`Nc1cc(Nc2ccc(Br)cc2)nc(N)n1`: in experiment [5], the KD was > >1000 μM. In addition, the binding entry in experiment [1] (pH 7.5, 2% DMSO, 25 °C) was “yes”; in experiment [3] it was “yes”.
For the molecule `Nc1ccc(-c2nc3cncc(N)c3[nH]2)c(O)c1`, the “% TO-PRO-1 displaced” value in experiment [3] (2% DMSO, room temperature) is given as 28.6 ± 0.4%. Moreover, in experiment [6] (excess ligand non-specific), the KD was determined as 29.10 ± 0.15 µM.
For the molecule `Nc1ccccc1-c1nc2cnccc2[nH]1`, the KD in experiment [5] (no saturation at 1 mM) is reported as > >1000 μM. The binding result in experiment [1] (pH 7.5, 25 °C, not detected by FID at 100 μM) is given as “yes”.
Turning to `Nc1nc(N)c2c(ccc3[nH]ccc32)n1`, in experiment [3], the binding entry is reported as “yes”. The KD in experiment [6] (non-specific at 10-fold excess) came out at 20.64 ± 9.40 µM.
